Data reported in patent US12221417B2, “Salt of omecamtiv mecarbil and process for preparing salt” (Cytokinetics, Inc., priority 2013, dated 2025).
Where a name gives a salt, the structure may show the parent alone.

Columns and labels:
[1] = Dynamic vapor sorption (moisture balance); type: physicochemical
Description: Moisture balance data was collected using a VTI SGA 100 symmetrical vapor sorption analyzer. Relative humidity was varied in increments of 5%, between 5% and 95% relative humidity during the adsorption run, and from 95% to 5% relative humidity during the desorption run. Equilibrium criteria was set at 0.01% weight change in 1 minute with a max equilibrium time of 180 minutes. Approximately 1-15 mg of sample was used.

[2] = pH 3.5
[3] = physchem; details: pH 3.5, water, thermodynamic from solid
[4] = Water solubility (24 hour slurry experiment); details: pH 3.8, water, thermodynamic from solid

Structure (SMILES) | weight change, dynamic vapor sorption ([1]; above 15% relative humidity, upon reaching 95% relative humidity) | weight loss, dynamic vapor sorption ([1]; between about 30% and about 5% RH) | total weight gain, dynamic vapor sorption ([1]; between about 40% and about 95% relative humidity) | hygroscopicity ([1]; dynamic vapor sorption) | phase change after the vapor sorption experiment ([1]; examined by XRPD) | phase change during the slurry experiment [2] | solubility at 24 h [3] | solubility [4]
COC(=O)N1CCN(Cc2cccc(NC(=O)Nc3ccc(C)nc3)c2F)CC1 [Form A, omecamtiv mecarbil dihydrochloride hydrate] | ~1.0% | about 2.7 wt % | about 0.55 wt. % | non-hygroscopic | No phase change | no phase change | > 40 mg/mL | –
COC(=O)N1CCN(Cc2cccc(NC(=O)Nc3ccc(C)nc3)c2F)CC1 [dihydrochloride salt, omecamtiv mecarbil dihydrochloride hydrate] | – | – | – | – | – | – | – | > 40 mg/mL
